Laboratory results: EP0432983A2 (priority 1989, dated 1991)
In brackets after ≈: the same amount, converted by molar mass.

Legend:
[1] = test system: P-388 (mouse DBA/2 lymphoid neoplasm); test: General anti-tumour assay, P-388; assay type: cell-based
Method: (§1) With compounds AH-3, AH-4 and AH-5, four general anti-tumour assays and two cytotoxicity assays were performed. Current screening protocols were employed using test substance diluted as above and at varying concentrations. Tests were performed against the tumour cells P-388 (mouse DBA/2 lymphoid neoplasm), A-549 (human lung carcinoma), HT-29 (human colon carcinoma) and MCF-7 (human breast carcinoma) and for the cytotoxicity assays against CV-1 (monkey kidney fibroblast) and BHK (Hamster kidney fibroblast).
(§2) Scoring is performed as follows: (-) no activity - the number of cells is equal to the control of growth, 0-40% cell inhibition (+) low activity - numbers of cells are reduced by approx 50-60% (++) good activity - numbers of cells are reduced by approx 70-90% (+++) very good activity - there is 100% cell inhibition [(+) is the approximate IC₅₀]

[2] = test system: A-549 (human lung carcinoma); test: General anti-tumour assay, A-549; assay type: cell-based
Method: as §1, §2

[3] = test system: HT-29 (human colon carcinoma); test: General anti-tumour assay, HT-29; assay type: cell-based
Method: as §1, §2

[4] = test system: MCF-7 (human breast carcinoma); test: General anti-tumour assay, MCF-7; assay type: cell-based
Method: as §1, §2

[5] = test system: CV-1 (monkey kidney fibroblast); test: Cytotoxicity assay, CV-1; assay type: cell-based
Method: as §1, §2

[6] = test system: BHK (Hamster kidney fibroblast); test: Cytotoxicity assay, BHK; assay type: cell-based
Method: as §1, §2

[7] = test system: HSV-1 (herpes simplex virus, type 1); test: General anti-viral assay, HSV-1 in CV-1 cells (plaque reduction); assay type: cell-based; settings: Human alphaherpesvirus 1; CV-1/ HSV-1; read-out: IC50 µg/ml approx
[8] = test system: VSV (Vesicular Stomatitis Virus); test: microbe, parasite or virus in culture; assay type: cell-based; settings: BHK, read-out: IC50 µg/ml approx

CC(C)=CC1CC(C)C2CCC(C)c3c4c(c(C)c1c32)OCO4 (stereo not drawn) [AH-5, Helioporin E]
IC50 ([1]; Mus musculus, P388, P-388, read-out: IC50 µg/ml approx): 5 to 10 µg/mL (≈ 16 to 32 µM) | activity (cell inhibition) ([1]; P-388, TEST CONC (µg) 0.2): - ((-) no activity - the number of cells is equal to the control of growth, 0-40% cell inhibition) | activity (cell inhibition) ([1]; P-388, TEST CONC (µg) 0.5): - ((-) no activity - the number of cells is equal to the control of growth, 0-40% cell inhibition) | activity (cell inhibition) ([1]; P-388, TEST CONC (µg) 1): - ((-) no activity - the number of cells is equal to the control of growth, 0-40% cell inhibition) | activity (cell inhibition) ([1]; P-388, TEST CONC (µg) 2): - ((-) no activity - the number of cells is equal to the control of growth, 0-40% cell inhibition) | activity (cell inhibition) ([1]; P-388, TEST CONC (µg) 5): - ((-) no activity - the number of cells is equal to the control of growth, 0-40% cell inhibition) | activity (cell inhibition) ([1]; P-388, TEST CONC (µg) 10): ++ ((++) good activity - numbers of cells are reduced by approx 70-90%) | activity (cell inhibition) ([1]; P-388, TEST CONC (µg) 20): ++ ((++) good activity - numbers of cells are reduced by approx 70-90%) | activity (cell inhibition) ([2]; A-549, TEST CONC (µg) 0.2): - ((-) no activity - the number of cells is equal to the control of growth, 0-40% cell inhibition) | activity (cell inhibition) ([2]; A-549, TEST CONC (µg) 0.5): - ((-) no activity - the number of cells is equal to the control of growth, 0-40% cell inhibition) | activity (cell inhibition) ([2]; A-549, TEST CONC (µg) 1): - ((-) no activity - the number of cells is equal to the control of growth, 0-40% cell inhibition) | activity (cell inhibition) ([2]; A-549, TEST CONC (µg) 2): - ((-) no activity - the number of cells is equal to the control of growth, 0-40% cell inhibition) | activity (cell inhibition) ([2]; A-549, TEST CONC (µg) 5): - ((-) no activity - the number of cells is equal to the control of growth, 0-40% cell inhibition) | activity (cell inhibition) ([2]; A-549, TEST CONC (µg) 10): - ((-) no activity - the number of cells is equal to the control of growth, 0-40% cell inhibition) | activity (cell inhibition) ([2]; A-549, TEST CONC (µg) 20): - ((-) no activity - the number of cells is equal to the control of growth, 0-40% cell inhibition) | IC50 ([2]; Homo sapiens, A549, A-549, read-out: IC50 µg/ml approx): > 20 µg/mL | activity (cell inhibition) ([3]; HT-29, TEST CONC (µg) 0.2): - ((-) no activity - the number of cells is equal to the control of growth, 0-40% cell inhibition) | activity (cell inhibition) ([3]; HT-29, TEST CONC (µg) 0.5): - ((-) no activity - the number of cells is equal to the control of growth, 0-40% cell inhibition) | activity (cell inhibition) ([3]; HT-29, TEST CONC (µg) 1): - ((-) no activity - the number of cells is equal to the control of growth, 0-40% cell inhibition) | activity (cell inhibition) ([3]; HT-29, TEST CONC (µg) 2): - ((-) no activity - the number of cells is equal to the control of growth, 0-40% cell inhibition) | activity (cell inhibition) ([3]; HT-29, TEST CONC (µg) 5): + ((+) low activity - numbers of cells are reduced by approx 50-60%) | activity (cell inhibition) ([3]; HT-29, TEST CONC (µg) 10): ++ ((++) good activity - numbers of cells are reduced by approx 70-90%) | activity (cell inhibition) ([3]; HT-29, TEST CONC (µg) 20): +++ ((+++) very good activity - there is 100% cell inhibition) | IC50 ([3]; Homo sapiens, HT-29, read-out: IC50 µg/ml approx): ~5 µg/mL (≈ 16 µM) | IC50 ([4]; Homo sapiens, MCF7, MCF-7, read-out: IC50 µg/ml approx): ~10 µg/mL (≈ 32 µM) | activity (cell inhibition) ([4]; MCF-7, TEST CONC (µg) 0.2): - ((-) no activity - the number of cells is equal to the control of growth, 0-40% cell inhibition) | activity (cell inhibition) ([4]; MCF-7, TEST CONC (µg) 0.5): - ((-) no activity - the number of cells is equal to the control of growth, 0-40% cell inhibition) | activity (cell inhibition) ([4]; MCF-7, TEST CONC (µg) 1): - ((-) no activity - the number of cells is equal to the control of growth, 0-40% cell inhibition) | activity (cell inhibition) ([4]; MCF-7, TEST CONC (µg) 2): - ((-) no activity - the number of cells is equal to the control of growth, 0-40% cell inhibition) | activity (cell inhibition) ([4]; MCF-7, TEST CONC (µg) 5): - ((-) no activity - the number of cells is equal to the control of growth, 0-40% cell inhibition) | activity (cell inhibition) ([4]; MCF-7, TEST CONC (µg) 10): + ((+) low activity - numbers of cells are reduced by approx 50-60%) | activity (cell inhibition) ([4]; MCF-7, TEST CONC (µg) 20): +++ ((+++) very good activity - there is 100% cell inhibition) | activity (cell inhibition) ([5]; CV-1, TEST CONC (µg) 0.2): - ((-) no activity - the number of cells is equal to the control of growth, 0-40% cell inhibition) | activity (cell inhibition) ([5]; CV-1, TEST CONC (µg) 0.5): - ((-) no activity - the number of cells is equal to the control of growth, 0-40% cell inhibition) | activity (cell inhibition) ([5]; CV-1, TEST CONC (µg) 1): - ((-) no activity - the number of cells is equal to the control of growth, 0-40% cell inhibition) | activity (cell inhibition) ([5]; CV-1, TEST CONC (µg) 2): - ((-) no activity - the number of cells is equal to the control of growth, 0-40% cell inhibition) | activity (cell inhibition) ([5]; CV-1, TEST CONC (µg) 5): - ((-) no activity - the number of cells is equal to the control of growth, 0-40% cell inhibition) | activity (cell inhibition) ([5]; CV-1, TEST CONC (µg) 10): - ((-) no activity - the number of cells is equal to the control of growth, 0-40% cell inhibition) | activity (cell inhibition) ([5]; CV-1, TEST CONC (µg) 20): ++ ((++) good activity - numbers of cells are reduced by approx 70-90%) | IC50 ([5]; Primates, CV-1, read-out: IC50 µg/ml approx): 10 to 20 µg/mL (≈ 32 to 64 µM) | IC50 ([6]; Mesocricetus auratus, read-out: IC50 µg/ml approx): ~5 µg/mL (≈ 16 µM) | activity (cell inhibition) ([6]; TEST CONC (µg) 0.2): - ((-) no activity - the number of cells is equal to the control of growth, 0-40% cell inhibition) | activity (cell inhibition) ([6]; TEST CONC (µg) 0.5): - ((-) no activity - the number of cells is equal to the control of growth, 0-40% cell inhibition) | activity (cell inhibition) ([6]; TEST CONC (µg) 1): - ((-) no activity - the number of cells is equal to the control of growth, 0-40% cell inhibition) | activity (cell inhibition) ([6]; TEST CONC (µg) 2): - ((-) no activity - the number of cells is equal to the control of growth, 0-40% cell inhibition) | activity (cell inhibition) ([6]; TEST CONC (µg) 5): + ((+) low activity - numbers of cells are reduced by approx 50-60%) | activity (cell inhibition) ([6]; TEST CONC (µg) 10): +++ ((+++) very good activity - there is 100% cell inhibition) | activity (cell inhibition) ([6]; TEST CONC (µg) 20): +++ ((+++) very good activity - there is 100% cell inhibition) | IC50 [7]: > 40 µg/mL | IC50 [8]: > 40 µg/mL | cytotoxicity (inhibition zone on the cell sheet) (BHK cells): 0-
